3 molecules from PMC12508159 (NPJ Biofilms and Microbiomes, 2025) can be followed below.

pKd: −log10 of the molar value.

Test [1] concerns the target T1, serine-rich adhesin for platelets (SraP), L-lectin module (SLL) (Staphylococcus aureus, UniProt Q8NUJ3). The experiment in a line: SPR. It is filed as binding.
Test [2] concerns the target T1, serine-rich adhesin for platelets (SraP), L-lectin module (SLL). The experiment in a line: SPR. It is filed as binding. This is another data set of the same source.

T1 sequence (Q8NUJ3 245-480): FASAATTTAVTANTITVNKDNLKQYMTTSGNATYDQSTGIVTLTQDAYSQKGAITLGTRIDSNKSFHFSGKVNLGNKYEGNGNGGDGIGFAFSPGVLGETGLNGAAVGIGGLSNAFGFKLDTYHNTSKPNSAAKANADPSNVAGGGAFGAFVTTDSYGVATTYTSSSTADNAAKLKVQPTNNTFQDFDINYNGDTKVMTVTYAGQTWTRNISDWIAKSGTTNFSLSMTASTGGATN

Regarding `COc1cc(-c2oc3cc(O)cc(O)c3c(=O)c2O[C@@H]2O[C@H](CO[C@@H]3O[C@@H](C)[C@H](O)[C@@H](O)[C@H]3O)[C@@H](O)[C@H](O)[C@H]2O)ccc1O` [isorhamnetin-3-O-β-rutinoside], in test [1], the “SPR (Biacore T200), dose-dependent” value is “isorhamnetin-3-O-β-rutinoside, EGCG, neoeriocitrin, and isoviolanthin, were verified to possess strong binding signals in a dose-dependent manner”.
Usually pKd stands for −log10 of the Kd, conventionally taken in molar units. In the case of `O=C1O[C@H]2[C@@H]3OC(=O)c4cc(O)c(O)c(O)c4-c4c(O)c(O)c5oc(=O)c6c(c(O)c(O)c7oc(=O)c4c5c76)-c4c(cc(O)c(O)c4O)C(=O)OC[C@H]3OC(O)[C@@H]2OC(=O)c2cc(O)c(O)c(O)c2-c2c1cc(O)c(O)c2O` (mixture of isomers) [PA, punicalagin], in test [2], the pKd was 6.25.
Turning to `C[C@@H]1O[C@@H](O[C@H]2[C@H](Oc3cc(O)c4c(c3)O[C@H](c3ccc(O)c(O)c3)CC4=O)O[C@H](CO)[C@@H](O)[C@@H]2O)[C@H](O)[C@H](O)[C@H]1O` [neoeriocitrin], the “SPR (Biacore T200), dose-dependent” value in test [1] was “EGCG, neoeriocitrin, and isoviolanthin, were verified to possess strong binding signals in a dose-dependent manner”.
